Experimental data published in ChEMBL document CHEMBL1201862, “PubChem BioAssay data set” (2004).
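In this assay, cells in 96-well plates receive the compound at five concentrations for 48 hours. Endpoints are linearly interpolated between the surrounding concentrations. GI50: concentration for 50% inhibition of growth.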 Active and inactive are the calls of the source. Rule as the data show it: active = GI50 up to about 1.1 µM and inactive = higher.

Key:
Assay in all cases: DTP human tumour cell line panel, 48 h
[1] = system: MDA-MB-435
[2] = system: SK-MEL-28
[3] = system: 786-0
[4] = system: MDA-MB-231
[5] = system: SF-268
[6] = system: TK-10
[7] = system: SNB-75
[8] = system: ACHN
[9] = system: COLO 205
[10] = system: RPMI-8226
[11] = system: RXF 393
[12] = system: UO-31
[13] = system: KM12
[14] = system: A549
[15] = system: OVCAR-5
[16] = system: HOP-62
[17] = system: PC-3
[18] = system: SK-MEL-2
[19] = system: IGROV-1
[20] = system: UACC-62

Measured: GI50

N=C(N)Nc1ccc(-c2ccc(NC(=N)N)cc2)cc1
inactive: [1] 55 µM | [2] 45.5 µM | [3] 24 µM | [4] > 100 µM | [5] 37.3 µM | [6] 14.3 µM | [7] 9.12 µM | [8] 45.3 µM | [9] 21.5 µM | [10] 19.5 µM | [11] 22.4 µM | [12] 46.1 µM | [13] 33.5 µM | [14] 6.03 µM | [15] 11.9 µM | [16] 16.7 µM | [17] 15.7 µM | [18] 34.4 µM | [19] 20.2 µM | [20] 40.1 µM
